From patent publication US12077503B2, “Substituted cyclic amides and their use as herbicides” (FMC CORPORATION, priority 2015, dated 2024)

Legend:
Type in all cases: in vivo
[1] = system: barnyardgrass (Echinochloa crus-galli); assay: Test A postemergence; conditions: Echinochloa crus-galli, post-emergence, 240 h, Postemergence
Method in brief: (§1)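 Greenhouse, ~10 d after spray; visual injury vs untreated controls, 0 = no effect, 100 = complete control. Preemergence: directed soil spray over planted seeds. Postemergence: plants 2–10 cm, 1–2 leaf stage. Loam/sand blend. Compound in non-phytotoxic solvent with surfactant.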

[2] = system: blackgrass (Alopecurus myosuroides); assay: Test A postemergence; conditions: Alopecurus myosuroides, post-emergence, 240 h, Postemergence, read-out: Blackgrass plant response rating (0 to 100 scale)
Method in brief: as §1

[3] = system: giant foxtail (Setaria faberii); assay: Test A postemergence; conditions: Setaria faberi, post-emergence, 240 h, Postemergence, read-out: Foxtail, Giant plant response rating (0 to 100 scale)
Method in brief: as §1

[4] = system: Galium (catchweed bedstraw, Galium aparine); assay: Test A postemergence; conditions: Galium, post-emergence, 240 h, Postemergence, read-out: Galium plant response rating (0 to 100 scale)
Method in brief: as §1

[5] = system: pigweed (Amaranthus retroflexus); assay: Test A postemergence; conditions: Amaranthus retroflexus, post-emergence, 240 h, Postemergence, read-out: Pigweed plant response rating (0 to 100 scale)
Method in brief: as §1

[6] = system: ryegrass, Italian (Italian ryegrass, Lolium multiflorum); assay: Test A postemergence; conditions: Lolium multiflorum, post-emergence, 240 h, Postemergence, read-out: Ryegrass, Italian plant response rating (0 to 100 scale)
Method in brief: as §1

[7] = system: ragweed (common ragweed, Ambrosia elatior); assay: Test A postemergence; conditions: Ambrosia artemisiifolia, post-emergence, 240 h, Postemergence, read-out: Ragweed plant response rating (0 to 100 scale)
Method in brief: as §1

[8] = system: wheat (Triticum aestivum); assay: Test A postemergence; conditions: Triticum aestivum, post-emergence, 240 h, Postemergence, read-out: Wheat plant response rating (0 to 100 scale)
Method in brief: as §1

Kochia (Kochia scoparia) [9] = assay: Test A postemergence; conditions: Bassia scoparia, post-emergence, 240 h, Postemergence, read-out: Kochia plant response rating (0 to 100 scale)
Method in brief: as §1

corn (Zea mays) = assay: Test A postemergence; conditions: Zea mays, post-emergence, 240 h, Postemergence, read-out: Corn plant response rating (0 to 100 scale)
Method in brief: as §1

[10] = system: barnyardgrass (Echinochloa crus-galli); assay: Test B flooded paddy test; conditions: Echinochloa crus-galli, 360 h, Flood, 250 g ai/ha; visually evaluated after 13 to 15 d; read-out: Plant response rating, Barnyardgrass (0 to 100 scale where 0 is no effect and 100 is complete control)
Method in brief: (§2)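 2-leaf plants; pots flooded 3 cm over soil; cpd added to paddy water; depth held; greenhouse 13–15 d; visual rating vs controls, 0 = no effect, 100 = complete control.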

[11] = system: sedge, umbrella (small-flower umbrella sedge, Cyperus difformis); assay: Test B flooded paddy test; conditions: Cyperus difformis, 360 h, Flood, 250 g ai/ha; visually evaluated after 13 to 15 d; read-out: Plant response rating, Sedge, Umbrella (0 to 100 scale where 0 is no effect and 100 is complete control)
Method in brief: as §2

rice (Oryra sativa) = assay: Test B flooded paddy test; conditions: Oryza sativa, 360 h, Flood, 250 g ai/ha; visually evaluated after 13 to 15 d; read-out: Plant response rating, Rice (0 to 100 scale where 0 is no effect and 100 is complete control)
Method in brief: as §2

[12] = system: ducksalad (Heteranthera limosa); assay: Test B flooded paddy test; conditions: Heteranthera limosa, 360 h, Flood, 250 g ai/ha; visually evaluated after 13 to 15 d; read-out: Plant response rating, Ducksalad (0 to 100 scale where 0 is no effect and 100 is complete control)
Method in brief: as §2

[13] = system: barnyardgrass (Echinochloa crus-galli); assay: Test A preemergence; conditions: Echinochloa crus-galli, pre-emergence, 240 h, Preemergence
Method in brief: as §1

[14] = system: giant foxtail (Setaria faberii); assay: Test A preemergence; conditions: Setaria faberi, pre-emergence, 240 h, Preemergence
Method in brief: as §1

[15] = system: pigweed (Amaranthus retroflexus); assay: Test A preemergence; conditions: Amaranthus retroflexus, pre-emergence, 240 h, Preemergence
[16] = system: ryegrass, Italian (Italian ryegrass, Lolium multiflorum); assay: Test A preemergence; conditions: Lolium multiflorum, pre-emergence, 240 h, Preemergence
Method in brief: as §1

[17] = system: ragweed (common ragweed, Ambrosia elatior); assay: Test A preemergence; conditions: Ambrosia artemisiifolia, pre-emergence, 240 h, Preemergence
Method in brief: as §1

Kochia (Kochia scoparia) [18] = assay: Test A preemergence; conditions: Bassia scoparia, pre-emergence, 240 h, Preemergence
Method in brief: as §1

[19] = 125 g ai/ha, visual rating about 10 d after treatment
[20] = 31 g ai/ha, 0 is no effect, 100 is complete control

`COc1c([C@H]2CN(C)C(=O)[C@@H]2C(=O)Nc2ccccc2SC)cccc1C(F)(F)F` [Compound 1340] was tested. Which pest or weed control at 125 g/ha ([1]; 125 g ai/ha, visual rating about 10 d after treatment, read-out: Barnyardgrass plant response rating (0 to 100 scale, 0 no effect, 100 complete control)) did it give?
The pest or weed control at 125 g/ha was 30%.

And the pest or weed control at 31 g/ha ([1]; 31 g ai/ha, 0 is no effect, 100 is complete control, read-out: Barnyardgrass plant response rating (0 to 100 scale))?
The pest or weed control at 31 g/ha was 20%.

And the pest or weed control at 125 g/ha [2, 19]?
Its pest or weed control at 125 g/ha is 0%.

What about the pest or weed control at 31 g/ha [2, 20] of the same compound?
Its pest or weed control at 31 g/ha is 0%.

What about the pest or weed control at 125 g/ha [3, 19] of the same compound?
The pest or weed control at 125 g/ha was 50%.

What about the pest or weed control at 31 g/ha [3, 20] of the same compound?
Its pest or weed control at 31 g/ha is 0%.

And the pest or weed control at 125 g/ha [4, 19]?
Its pest or weed control at 125 g/ha is 20%.

And the pest or weed control at 31 g/ha [4, 20]?
Its pest or weed control at 31 g/ha is 0%.

And the pest or weed control at 125 g/ha [5, 19]?
The pest or weed control at 125 g/ha was 0%.

And the pest or weed control at 31 g/ha [5, 20]?
The pest or weed control at 31 g/ha was 0%.

What about the pest or weed control at 125 g/ha [6, 19] of the same compound?
The pest or weed control at 125 g/ha was 0%.

What about the pest or weed control at 31 g/ha [6, 20] of the same compound?
Its pest or weed control at 31 g/ha is 0%.

And the pest or weed control at 125 g/ha [7, 19]?
Its pest or weed control at 125 g/ha is 0%.

And the pest or weed control at 31 g/ha [7, 20]?
Its pest or weed control at 31 g/ha is 0%.

And the plant injury at 125 g/ha [8, 19]?
The plant injury at 125 g/ha was 0%.

And the plant injury at 31 g/ha [8, 20]?
The plant injury at 31 g/ha was 0%.

And the pest or weed control at 125 g/ha (Kochia (Kochia scoparia) [9]; [19])?
Its pest or weed control at 125 g/ha is 20%.

And the pest or weed control at 31 g/ha (Kochia (Kochia scoparia) [9]; [20])?
Its pest or weed control at 31 g/ha is 0%.

What about the plant injury at 125 g/ha (corn (Zea mays); [19]) of the same compound?
The plant injury at 125 g/ha was 20%.

And the plant injury at 31 g/ha (corn (Zea mays); [20])?
The plant injury at 31 g/ha was 0%.

What about the pest or weed control at 250 g/ha [10] of the same compound?
Its pest or weed control at 250 g/ha is 40%.

And the pest or weed control at 250 g/ha [11]?
The pest or weed control at 250 g/ha was 0%.

And the pest or weed control at 250 g/ha (rice (Oryra sativa))?
The pest or weed control at 250 g/ha was 20%.

What about the pest or weed control at 250 g/ha [12] of the same compound?
The pest or weed control at 250 g/ha was 80%.

And the pest or weed control at 31 g/ha ([13]; 31 g ai/ha, 0 to 100 scale where 0 is no effect and 100 is complete control, read-out: Barnyardgrass plant response rating)?
Its pest or weed control at 31 g/ha is 90%.

What about the pest or weed control at 125 g/ha ([13]; 125 g ai/ha, 0 to 100 scale (0 no effect, 100 complete control), read-out: Plant response rating, Barnyardgrass) of the same compound?
Its pest or weed control at 125 g/ha is 90%.

What about the pest or weed control at 31 g/ha ([14]; 31 g ai/ha, 0 to 100 scale where 0 is no effect and 100 is complete control, read-out: Foxtail, Giant plant response rating) of the same compound?
Its pest or weed control at 31 g/ha is 40%.

What about the pest or weed control at 125 g/ha ([14]; 125 g ai/ha, 0 to 100 scale (0 no effect, 100 complete control), read-out: Plant response rating, Foxtail, Giant) of the same compound?
Its pest or weed control at 125 g/ha is 90%.

And the pest or weed control at 31 g/ha ([15]; 31 g ai/ha, 0 to 100 scale where 0 is no effect and 100 is complete control, read-out: Pigweed plant response rating)?
The pest or weed control at 31 g/ha was 0%.

And the pest or weed control at 125 g/ha ([15]; 125 g ai/ha, 0 to 100 scale (0 no effect, 100 complete control), read-out: Plant response rating, Pigweed)?
The pest or weed control at 125 g/ha was 20%.

And the pest or weed control at 31 g/ha ([16]; 31 g ai/ha, 0 to 100 scale where 0 is no effect and 100 is complete control, read-out: Ryegrass, Italian plant response rating)?
Its pest or weed control at 31 g/ha is 0%.

And the pest or weed control at 125 g/ha ([16]; 125 g ai/ha, 0 to 100 scale (0 no effect, 100 complete control), read-out: Plant response rating, Ryegrass, Italian)?
The pest or weed control at 125 g/ha was 0%.

What about the pest or weed control at 31 g/ha ([17]; 31 g ai/ha, 0 to 100 scale where 0 is no effect and 100 is complete control, read-out: Ragweed plant response rating) of the same compound?
Its pest or weed control at 31 g/ha is 0%.

What about the pest or weed control at 125 g/ha ([17]; 125 g ai/ha, 0 to 100 scale (0 no effect, 100 complete control), read-out: Plant response rating, Ragweed) of the same compound?
Its pest or weed control at 125 g/ha is 0%.

What about the pest or weed control at 31 g/ha (Kochia (Kochia scoparia) [18]; 31 g ai/ha, 0 to 100 scale where 0 is no effect and 100 is complete control, read-out: Kochia plant response rating) of the same compound?
The pest or weed control at 31 g/ha was 0%.

And the pest or weed control at 125 g/ha (Kochia (Kochia scoparia) [18]; 125 g ai/ha, 0 to 100 scale (0 no effect, 100 complete control), read-out: Plant response rating, Kochia)?
Its pest or weed control at 125 g/ha is 0%.
